{"source": "patent US7812142B2", "about": "“Pentose derivatives as anti-hyperglycemic drugs” (Yissum Research Development Company of the Hebrew …, priority 2002, dated 2010)", "key": {"Solubility of EH-36": {"assay": "Solubility of EH-36", "type": "physicochemical", "details": "e.g., DMSO, ethanol and oil"}, "[1]": {"assay": "Serum level of EH-36 in rats by HPLC", "type": "in vivo, rat", "details": "16 mg/day in sesame oil s.c. for 3 days, serum on fourth day, preliminary", "description": "Extract aliquots (30 μl) were analyzed by reverse phase HPLC in a 150×4.6 mm, 3μ ODS Hypersil® column (Thermohypersil-Keystone, Bellfonte, Pa.) connected to an L-4200 UV-Vis detector (272 nm). Elution was at a flow rate of 1.5 ml/min with water and acetonitrile gradient: the initial solvent mixture was 30% water:70% acetonitrile:. A convex gradient over 20 min then followed to 100% acetonitrile.\nThe pharmacokinetic parameters of EH-36 were determined by the following procedure. Rats (3 per group per time point) were anesthetized and their blood collected from the portal vein. The serum was separated and extracted with chloroform. The extract was dried and redissolved in a small volume of chloroform and separated by HPLC and identified by UV absorption. The animals were treated with 16 mg/day (in sesame oil, s.c.) for 3 days. On the fourth day the animals were sacrificed and serum was isolated, extracted and separated by HPLC. There was a distinct peak of EH-36 corresponding to 1.01 mg/ml EH-36. To verify that this peak corresponds to EH-36 a known quantity of this compound was added to a serum sample taken from the EH-36-treated rats. Following extraction and HPLC analysis the only peak that was intensified was that corresponding to EH-36. […]"}, "[2]": {"system": "streptozotocin-diabetic mice", "assay": "Glucose tolerance test (GTT) of diabetic mice", "type": "in vivo, mouse", "description": "FIG. 14: Glucose tolerance test (GTT) of diabetic mice treated with sesame oil or EH-36 for 9 days, as described in the legend to FIG. 12. On the morning of the 10th day and following an overnight fast the mice received glucose (2 gr/Kg body weight) by i.p. injection, Blood glucose was determined for 3 hr at 30 min intervals. The glucose data were plotted for each animal and the area under the curve (AUC) was calculated.\nIn another set of experiments similar diabetic mice were treated with the oil or EH-36 (1.5 mg, s.c. twice a day) for 9 days. On the morning of the 10th day and following an overnight fast the mice were subjected to a glucose tolerance test (GTT). The mice received D-glucose by i.p. injections (2 gr/kg body weight). Blood glucose as monitored for 3 hr at 30 min intervals."}, "non-diabetic mice": {"system": "non-diabetic mice", "assay": "Blood glucose level of non-diabetic mice", "details": "mouse, in vivo"}, "[3]": {"system": "glucose uptake in cultured cells", "assay": "In vitro glucose uptake / hexose transport in cultured cells with xylose derivatives (Table 2)", "type": "cell-based", "description": "Table 2 summarizes in vitro results obtained with some of these newly synthesized xylose derivatives.\nUptake assay of the tritiated glucose analogue, 2-deoxy-D-glucose, is routinely performed as described in [Sasson, S. and Cerasi, E. (1986) J. Biol. Chem. 261, 16827-16833].\nAll new compounds are screened and tested first in various insulin-sensitive cell cultures used routinely in the laboratory (skeletal muscle and adipose cell lines). In addition these drugs were tested in non-insulin-sensitive cells such as primary cultures of bovine and porcine vascular endothelial and smooth muscle cells. Active compounds were tested ex-vivo on isolated rat soleus muscles. All cell cultures and tissues were maintained under hyperglycemic condition prior to the addition of the test compounds. Dose-response and time-course experiments determine which of the derivatives are subsequently tested in animal models. For each potent compound the total cell content and plasma membrane abundance of GLUT-1 and GLUT-4 was determined, as described above. The same biotinylation technique was employed to determine the total and plasma membrane content of both transporters in isolated mouse or rat soleus muscles treated with potent compounds."}, "[4]": {"system": "streptozotocin-diabetic C57/black mice", "assay": "Anti-hyperglycemic activity in streptozotocin-diabetic mice", "type": "in vivo, mouse", "description": "FIG. 12: Anti-hyperglycemic activity of EH-36 in streptozotocin-diabetic mice. Mice were treated with EH-36 or the vehicle alone (sesame oil, bold lines), and their blood glucose levels determined at the indicated time intervals. Male C57/black mice were made hyperglycemic by 5 repeated daily injections of streptozotocin (i.p. 50 mg/Kg body weight). EH-36 was dissolved in sesame oil (4 mg/ml) and injected s.c (400 μg) twice a day.\nFIG. 13: Anti-hyperglycemic activity of EH-36 in streptozotocin-diabetic mice. Mice were treated with EH-36 (as described in the legend to FIG. 12) or the vehicle alone (sesame oil, bold lines), and their blood glucose levels were determined at the indicated time intervals. C57/black mice were made diabetic as described in the legend to FIG. 12.\nEH-36 was tested for its potential anti-hyperglycemic activity in an animal model of diabetes. Male C57/black mice were made diabetic by daily i.p. injections of streptozotocin (50 mg/Kg) for 5 days. After 10 days the fasting blood glucose of these mice was above 300 mg/dL as compared to 80-130 mg/dL of control mice. Unlike a single and high dose injection of streptozotocin, which produces an animal model for Type 1 diabetes, the repeated low-dose injections produce a model that more closely resembles Type 2 diabetes. (Fraser, R. B., Rowden, G., Colp, P, And Wright, J. R. Jr.: Immunophenotyping of insulitis in control and essential fatty aid deficient mice treated with multiple low-dose streptozotocin. Diabetologia, 40:1263-1268, 1997).\nEH-36 was dissolved in sesame oil (4 mg/ml) and injected into Streptozotocin-diabetic mice (s.c. 400 μg, twice a day at 08 and 18 hrs). Blood was withdrawn from the tip of the tails and glucose levels were measured with a glucometer."}}, "note": "pEC50: −log10 of the molar value."}
{"smiles": "CCSC(SCC)[C@@H]1OC(c2ccccc2)O[C@@H]2COC(c3ccccc3)O[C@@H]21", "note": "(stereo partly drawn) [EH-36, 2,4:3,5 di-O-benzylidene-D-xylose-diethyl-dithioacetal]", "values": [{"measurement": "solubility", "setting": "Solubility of EH-36", "result": "very limited solubility in most common organic solvents"}, {"measurement": "serum concentration", "setting": "[1]", "result": 1010, "unit": "µg/mL"}, {"measurement": "average AUC of GTT", "setting": "[2]; 1.5 mg s.c. twice a day for 9 days, glucose 2 gr/kg i.p. on 10th day, ±SEM", "result": "6.42±1.62", "unit": "mg glucose/ml/hr"}, {"measurement": "improvement of glucose clearance", "setting": "[2]; following a 9-day treatment", "result": "~50", "unit": "%"}, {"measurement": "blood glucose level of non-diabetic mice", "setting": "non-diabetic mice", "result": "Neither EH-36 nor the vehicle changed significantly"}, {"measurement": "Fold Increase of Glucose Uptake", "setting": "[3]", "result": 2.0, "unit": "fold"}, {"measurement": "onset of action", "setting": "[3]", "result": "24 to 48", "unit": "h"}, {"measurement": "time to maximal stimulatory effects", "setting": "[3]", "result": "≤ 48", "unit": "h"}, {"measurement": "pEC50", "setting": "[3]; EC = Effective concentration", "result": 5.70}, {"measurement": "ECmax", "setting": "[3]; EC = Effective concentration", "result": 10, "unit": "µM"}, {"measurement": "potency relative to D-xylose", "setting": "[3]; more potent than xylose", "result": 2000, "unit": "fold"}, {"measurement": "blood glucose level", "setting": "[4]; 400 μg s.c. in sesame oil twice a day (FIG. 13)", "result": "reduced their blood glucose level to the normoglycemic range"}, {"measurement": "duration of effect after treatment", "setting": "[4]; after the last injection", "result": "at least 3 weeks"}, {"measurement": "blood glucose levels after treatment stopped", "setting": "[4]; left untreated for four additional weeks after 9-day injection", "result": "250 to 350", "unit": "mg/dL"}, {"measurement": "appearance of animals after treatment stopped", "setting": "[4]; untreated for four additional weeks", "result": "looked normal and healthy"}]}
